Test results published in ChEMBL document CHEMBL1649134, “Occurrence of efflux mechanism and cephalosporinase variant in a population of Enterobacter aerogenes and Klebsiella pneumoniae isolates producing extended-spectrum beta-lactamases” (2009).
Calls of active or inactive are those of the source. Peptide text beside a SMILES is read from it. * marks the point of attachment. βNA = c1ccc2cc(N*)ccc2c1

Key:
Klebsiella aerogenes [1] = test: Inhibition of multidrug resistance efflux pump in Enterobacter aerogenes isolate 6 assessed as increase in intracellular [14C]chloramphenicol accumulation relative to untreated control; type: cell-based
Klebsiella pneumoniae [2] = test: Inhibition of multidrug resistance efflux pump in Klebsiella pneumoniae isolate 13 assessed as increase in intracellular [14C]chloramphenicol accumulation relative to untreated control
Klebsiella aerogenes [3] = test: Inhibition of multidrug resistance efflux pump in Enterobacter aerogenes isolate 17 assessed as increase in intracellular [14C]chloramphenicol accumulation relative to untreated control; type: cell-based
Klebsiella aerogenes [4] = test: Inhibition of multidrug resistance efflux pump in Enterobacter aerogenes isolate 13 assessed as increase in intracellular [14C]chloramphenicol accumulation relative to untreated control; type: cell-based
Klebsiella pneumoniae [5] = test: Inhibition of multidrug resistance efflux pump in Klebsiella pneumoniae isolate 14 assessed as increase in intracellular [14C]chloramphenicol accumulation relative to untreated control

Measured: inhibition

N=C(N)NCCC[C@H](NC(=O)[C@@H](N)Cc1ccccc1)C(=O)Nc1ccc2ccccc2c1 (H-Phe-Arg-βNA)
active: all assays above
